PubChem BioAssay AID256 (DTP/NCI, 2004)
Several values for one entry are separate records, joined by “and”; a condition that tells them apart may be missing. Equal values may be shown once. Toxic doses and inconclusive results are not listed. Rule for the calls: active = survival T/C of 150% or more; inactive = T/C below 125% in these data.

System: CD2F1 mice, L1210 leukemia ip, survival T/C
Experiment: NCI In Vivo Anticancer Drug Screen. Data for tumor model L1210 Leukemia (intraperitoneal) in CD2F1 (CDF1) mice
Conditions: higher = longer survival
Procedure: The antitumor activity of compounds was measured in mice bearing transplantable tumors. Survival or tumor size were measured and the results are expressed as the measurement made in the treated group (T) divided by the measurement made in the vehicle treated control group (C). The tumor model used in this assay is L1210 Leukemia (intraperitoneal) in CD2F1 (CDF1) mice

[1] = endpoint: mean survival time, dose: 100.0 mg/kg/injection, schedule: Q04DX003 (ip), vehicle: saline with Tween-80
[2] = endpoint: mean survival time, dose: 200.0 mg/kg/injection, schedule: Q04DX003 (ip), vehicle: saline with Tween-80
[3] = endpoint: mean survival time, dose: 400.0 mg/kg/injection, schedule: Q04DX003 (ip), vehicle: saline with Tween-80
[4] = endpoint: mean survival time, dose: 100.0 mg/kg/injection, schedule: Q01DX009 (ip), vehicle: saline with Tween-80
[5] = endpoint: mean survival time, dose: 200.0 mg/kg/injection, schedule: Q01DX009 (ip), vehicle: saline with Tween-80

Measured: T/C

O=C(c1ccccc1Br)C(Br)C(Br)c1ccccc1 (configuration not stated)
inactive: [1] 103 % of control | [2] 111 % of control | [3] 100 % of control

CCC1CN2C(=N1)c1ccccc1-c1cc(Cl)ccc12 (configuration not stated)
inactive: endpoint: mean survival time, dose: 10.0 mg/kg/injection, schedule: Q04DX003 (ip), vehicle: Klucel (hydroxypropylcellulose) (HPC) 98 % of control | endpoint: mean survival time, dose: 20.0 mg/kg/injection, schedule: Q04DX003 (ip), vehicle: Klucel (hydroxypropylcellulose) (HPC) 103 % of control

COC(=O)C(c1ccccc1)C(c1ccccc1)c1ccccc1 (configuration not stated)
inactive: endpoint: mean survival time, dose: 100.0 mg/kg/injection, schedule: Q04DX002 (ip), vehicle: saline with Tween-80 95 % of control | endpoint: mean survival time, dose: 200.0 mg/kg/injection, schedule: Q04DX002 (ip), vehicle: saline with Tween-80 87 % of control

[O-][n+]1cccc(CCc2ccc[n+]([O-])c2)c1
inactive: endpoint: mean survival time, dose: 50.0 mg/kg/injection, schedule: Q01DX009 (ip), vehicle: saline 100 % of control | endpoint: mean survival time, dose: 100.0 mg/kg/injection, schedule: Q01DX009 (ip), vehicle: saline 104 % of control | endpoint: mean survival time, dose: 200.0 mg/kg/injection, schedule: Q01DX009 (ip), vehicle: saline 100 % of control

CC(=O)OCC(C(=O)OC1CC2C3OC3C(C1)N2C)c1ccccc1 (configuration not stated)
inactive: endpoint: median survival time, dose: 12.5 mg/kg/injection, schedule: Q04DX003 (ip), vehicle: saline 100 % of control | endpoint: median survival time, dose: 25.0 mg/kg/injection, schedule: Q04DX003 (ip), vehicle: saline 100 % of control | endpoint: median survival time, dose: 50.0 mg/kg/injection, schedule: Q04DX003 (ip), vehicle: saline 88 % of control | endpoint: median survival time, dose: 100.0 mg/kg/injection, schedule: Q04DX003 (ip), vehicle: saline 88 % of control

CN(C)C(=O)N1CC1
inactive: [1] 98 % of control | [2] 98 % of control | [3] 106 % of control

COc1cccc(OC)c1OC(=O)/C=C/C(=O)Oc1c(OC)cccc1OC
inactive: [4] 96 % of control | [5] 96 % of control | endpoint: mean survival time, dose: 400.0 mg/kg/injection, schedule: Q01DX009 (ip), vehicle: saline with Tween-80 98 % of control

Clc1nc2nc[nH]c2nc1Cl
inactive: endpoint: mean survival time, dose: 25.0 mg/kg/injection, schedule: Q01DX009 (ip), vehicle: saline sonified 97 % of control | endpoint: mean survival time, dose: 50.0 mg/kg/injection, schedule: Q01DX009 (ip), vehicle: saline sonified 89 % of control | endpoint: mean survival time, dose: 100.0 mg/kg/injection, schedule: Q01DX009 (ip), vehicle: saline sonified 98 % of control

CS(=O)(=O)OCCCN(CCCOS(C)(=O)=O)c1ccc(C=Nc2ccc(-c3csc(COc4ccc(Br)cc4)n3)cc2)cc1
inactive: endpoint: mean survival time, dose: 100.0 mg/kg/injection, schedule: Q01DX001 (ip), vehicle: saline with Tween-80 94 % of control | endpoint: mean survival time, dose: 200.0 mg/kg/injection, schedule: Q01DX001 (ip), vehicle: saline with Tween-80 89 % of control | endpoint: mean survival time, dose: 400.0 mg/kg/injection, schedule: Q01DX001 (ip), vehicle: saline with Tween-80 88 % of control

CC1(CO)C(O)CCC2(C)C1CCC1CC3CC12CCC3(O)CO (configuration not stated)
inactive: endpoint: mean survival time, dose: 6.25 mg/kg/injection, schedule: Q01DX009 (ip), vehicle: saline with Tween-80 119 % of control and 102 % of control | endpoint: mean survival time, dose: 12.5 mg/kg/injection, schedule: Q01DX009 (ip), vehicle: saline with Tween-80 106 % of control and 109 % of control | endpoint: mean survival time, dose: 25.0 mg/kg/injection, schedule: Q01DX009 (ip), vehicle: saline with Tween-80 110 % of control and 111 % of control | endpoint: mean survival time, dose: 50.0 mg/kg/injection, schedule: Q01DX009 (ip), vehicle: saline with Tween-80 118 % of control and 111 % of control | [4] 121 % of control and 122 % of control | [5] 114 % of control and 102 % of control
